Legend:
[1] = test system: senescent Primary Renal Cortical Cells; assay: CellTiter-Glo cell viability assay, senescent renal epithelial cells; assay type: cell-based; conditions: 72 h, 3 days
Description: (§1) To determine whether ABT-263 is selectively toxic to senescent cells compared to non-senescent cells, a cell viability assay was used to assess cell survival following treatment with ABT-263. IMR90 cells (human primary lung fibroblasts (IMR90) (IMR-90 (ATCC® CCL-186™, Manassas, Virginia) were seeded in six well plates, and cells were induced to senescence with 10 Gy of ionizing radiation (IR) (Day 0). The media was refreshed every 3 days. The senescent phenotype is allowed to develop for 7 days at which point a cell count was made to determine the baseline number of cells followed by seeding into 96-well plates. On day 8, the senescent cells (irradiated) and the non-senescent cells (the non-radiated cells), were exposed to serial dilutions of ABT-263 for a period of 3 days. ABT-263 concentrations ranged from 0.5 nM to 3 μM. Each condition was seeded in triplicate.
(§2) After three days of treatment (Day 11), cells were assayed for cell survival using the commercially available CellTiter-Glo® (CTG) Luminescent Cell Viability Assay (Promega Corporation, Madison, Wisconsin). The assay determines the number of viable cells in culture based on the quantitation of ATP present which is an indicator of metabolically active cells.
(§3) The methods of Example 7 were repeated in other cell strains. […]

[2] = test system: non-senescent IMR90 cells; assay: Cell counting assay, non-senescent IMR90; assay type: cell-based, human; conditions: 3 μM, 24 hour exposure
Description: (§4) To determine whether ABT-263 is selectively toxic to senescent cells compared to non-senescent cells, a cell counting assay was used to determine cell survival following treatment with ABT-263. […] Each condition was seeded in three wells and counted independently. Cells were counted after a 24 hour exposure to ABT-263 (or control culture).

[3] = test system: non-senescent IMR90 cells; assay: CellTiter-Glo cell viability assay, non-senescent IMR90; assay type: cell-based; conditions: Homo sapiens, IMR-90, 72 h; non-senescent IMR90, 3 days
Description: as §1, §2
The experiments performed for assessing the effect of these other Bcl-2 inhibitors were performed essentially as described in Example 7. […]

[4] = test system: p16-3MR mice treated with paclitaxel; assay: Voluntary exercise (wheel counts) after paclitaxel in p16-3MR mice; assay type: in vivo, mouse; conditions: ABT-263 100 mg/kg i.p. daily 7 days; ganciclovir 25 mg/kg i.p. daily 3 days
Description: The capability of a senolytic agent, such as ABT-263, to reduce chemotherapy related side effects, such as fatigue, was examined in p16-3MR transgenic mice. In addition to doxorubicin, paclitaxel also induces cellular senescence when administered to animals. See Example 2 for a description of the p16-3MR transgenic mouse model.
In this experiment, paclitaxel was administered to groups of p16-3mr mice (n=4) three times, every two days. Two days after the third dose of paclitaxel, ganciclovir was administered daily for three days (days 1, 2, and 3) intraperitoneally at 25 mg/kg. ABT-263 (100 mg/kg) was administered intraperitoneally daily for seven days after paclitaxel administration. Two days after the last dose of ABT-263, all groups of animals were housed in metabolic cages (promethion, sable systems international, Las Vegas, NV) to monitor voluntary exercise as determined by wheel counts. Data were collected and analyzed two days later. Clearance of senescent cells by ABT-263 and ganciclovir restored approximately 70% of wheel count reduction caused by chemotherapy treatment.

[5] = test system: senescent IMR90 cells (IMR90 Sen(IR)); assay: Pan-caspase inhibitor (Q-VD-OPh) apoptosis assay in IMR90 cells; assay type: cell-based, human
Description: Lung fibroblast cell line IMR90 (human primary lung fibroblasts, ATCC® CCL-186™, Manassas, Virginia) were seeded in six-well plates and induced to senesce with 10 Gy of ionizing radiation (IR) as described in Example 12. After senescence was established, cells were re-seeded into 96 well plates. […] At the end of the assay time period, cells were counted. Each condition was seeded in three plate wells and counted independently. […] Cell survival was determined using the commercially available CellTiter-Glo® Luminescent Cell Viability Assay (Promega Corporation, Madison, Wisconsin). The assay determines the number of viable cells in culture based on the quantitation of ATP present which is an indicator of metabolically active cells.

[6] = test system: senescent IMR90 cells (Sen(IR) IMR90); assay: Cell counting assay, senescent IMR90; assay type: cell-based, human; conditions: 3 μM, 24 hour exposure
Description: as §4

[7] = test system: non-senescent Primary Renal Cortical Cells; assay: CellTiter-Glo cell viability assay, non-senescent renal epithelial cells; assay type: cell-based; conditions: 72 h, 3 days
Description: as §1, §2, §3

[8] = test system: non-senescent HCA2 foreskin fibroblast cells; assay: CellTiter-Glo cell viability assay, non-senescent HCA2; assay type: cell-based; conditions: 72 h; non-senescent HCA2, 3 days
Description: as §1, §2, §3

[9] = test system: senescent HCA2 foreskin fibroblast cells; assay: CellTiter-Glo cell viability assay, senescent HCA2; assay type: cell-based; conditions: 72 h; senescent HCA2, 3 days
Description: as §1, §2, §3

[10] = test system: 3MR or INK-ATTAC mice exposed to cigarette smoke; assay: Chronic cigarette smoke exposure model (COPD); assay type: in vivo, mouse; conditions: after 2 months of cigarette smoke exposure; vs untreated controls
Description: In a second animal model for pulmonary diseases (e.g., COPD), mice were exposed to cigarette smoke. The effect of a senolytic agent on the mice exposed to smoke is assessed by senescent cell clearance, lung function, and histopathology.
Six week-old 3MR (n=35) or INK-ATTAC (n=35) mice were chronically exposed to cigarette smoke generated from a Teague TE-10 system, an automatically-controlled cigarette smoking machine that produces a combination of side-stream and mainstream cigarette smoke in a chamber, which is transported to a collecting and mixing chamber where varying amounts of air is mixed with the smoke mixture. The COPD protocol was adapted from the COPD core facility at Johns Hopkins University (at Internet site web.jhu.edu/Biswal/exposure_core/copd.html#Cigarette_Smoke) (Rangasamy et al., 2004, J. Clin. Invest. 114:1248-1259; Yao et al., 2012, J. Clin. Invest. 122:2032-2045). Mice received a total of 6 hours of cigarette smoke exposure per day, 5 days a week for 6 months. Each lighted cigarette (3R4F research cigarettes containing 10.9 mg of total particulate matter (TPM), 9.4 mg of tar, and 0.726 mg of nicotine, and 11.9 mg carbon monoxide per cigarette [University of Kentucky, Lexington, KY]) was puffed for 2 seconds and once every minute for a total of 8 puffs, with the flow rate of 1.05 L/min, to provide a standard puff of 35 cm^3. The smoke machine was adjusted to produce a mixture of side stream smoke (89%) and mainstream smoke (11%) by smoldering 2 cigarettes at one time. The smoke chamber atmosphere was monitored for total suspended particulates (80-120 mg/m^3) and carbon monoxide (350 ppm). Beginning at day 7, (10) INK-ATTAC and (10) 3MR mice were treated with AP20187 (3× per week) or gancyclovir (5 consecutive days of treatment followed by 16 days off drug, repeated until the end of the experiment), respectively. An equal number of mice received the corresponding vehicle. The remaining […] (15 INK-ATTAC and 15 3MR) were evenly split with 5 of each genetically modified strain placed into three different treatment groups. One group (n=10) received Nutlin-3A (25 mg/kg dissolved in 10% DMSO/3% Tween-20 in PBS, treated 14 days consecutively followed by 14 days off drug, repeated until the end of the experiment). […]
After two months of cigarette smoke exposure, lung function was assessed by monitoring oxygen saturation using the MouseSTAT PhysioSuite pulse oximeter (Kent Scientific). […] Mice were monitored for 30 seconds and the average peripheral capillary oxygen saturation (SpO2) measurement over this duration was calculated.

senescent IMR90 cells = assay: CellTiter-Glo cell viability assay, senescent IMR90; assay type: cell-based, human
Description: as §1, §2
The experiments performed for assessing the effect of these other Bcl-2 inhibitors were performed essentially as described in Example 7. Cells were exposed to ABT-199 at serial dilution concentrations ranging from 15 nM to 100 μM (FIGS. 26 and 27). Cells were exposed to Obatoclax at concentrations ranging from 1.4 nM to 9 μM (FIG. 28).
IMR90 cells were induced to senescence by irradiation as described in Example 7. The irradiated IMR90 cells and non-senescent IMR90 cells were then exposed to a compound called ML214 that is a Bcl-2A1 specific inhibitor.
The effect of ABT-263 in combination with the Akt inhibitor MK-2206 was tested for selective toxicity of senescent cells compared to non-senescent cells in IMR90 cells. The methods of Example 7 were repeated except that cell cultures were exposed to 10 nM MK-2206 (Selleckem, Cat #S1078) in addition to serial dilutions of ABT-263.

With CC1(C)CCC(c2ccc(Cl)cc2)=C(CN2CCN(c3ccc(C(=O)NS(=O)(=O)c4ccc(N[C@H](CCN5CCOCC5)CSc5ccccc5)c(S(=O)(=O)C(F)(F)F)c4)cc3)CC2)C1 [ABT-263, 4-[4-[[2-(4-chlorophenyl)-5,5-dimethylcyclohexen-1-yl]methyl]piperazin-1-yl]-N-[4-[[(2R)-4-morpholin-4-yl-1-phenylsulfanylbutan-2-yl]amino]-3-(trifluoromethylsulfonyl)phenyl]sulfonylbenzamide] the IC50 [1] was 25 nM, the “Percentage of survival of cells after 24 hours” value [2] was “absence of toxicity” and the IC50 [3] was 2400 nM. The “Restoration of wheel count reduction caused by chemotherapy” value [4] was “approximately 70%”, the “Percent of surviving senescent cells in the presence of the pan-caspase inhibitor” value ([5]; 0.33 or 1 μM, 3 days, Q-VD-OPh 20 μM) was “increased” and the “Selective killing of senescent cells” value ([5]; IMR90, 3 days) was “selectively kills senescent cells”. For the same molecule, the “Cell counts relative to counts before treatment” value [6] was 28%, the IC50 [7] was 430 nM and the IC50 [8] was > 3000 nM. For the same molecule, the IC50 [9] was 410 nM, the SpO2 levels [10] was “statistically significant increases” and the IC50 (senescent IMR90 cells; Homo sapiens, IMR-90, 72 h, senescent IMR90, 3 days) was 140 nM. For the same molecule, the “In vitro theoretical therapeutic index” value (senescent IMR90 cells; IMR90, non-senescent vs senescent IC50) was 17.
